This is an account of results in patent US20020146741A1, “Processes for receptpor screening” (priority 2000, published 2002).

For assay [1], the target named is T1, GR (Homo sapiens, UniProt P04150).
T1 sequence (P04150 1-777): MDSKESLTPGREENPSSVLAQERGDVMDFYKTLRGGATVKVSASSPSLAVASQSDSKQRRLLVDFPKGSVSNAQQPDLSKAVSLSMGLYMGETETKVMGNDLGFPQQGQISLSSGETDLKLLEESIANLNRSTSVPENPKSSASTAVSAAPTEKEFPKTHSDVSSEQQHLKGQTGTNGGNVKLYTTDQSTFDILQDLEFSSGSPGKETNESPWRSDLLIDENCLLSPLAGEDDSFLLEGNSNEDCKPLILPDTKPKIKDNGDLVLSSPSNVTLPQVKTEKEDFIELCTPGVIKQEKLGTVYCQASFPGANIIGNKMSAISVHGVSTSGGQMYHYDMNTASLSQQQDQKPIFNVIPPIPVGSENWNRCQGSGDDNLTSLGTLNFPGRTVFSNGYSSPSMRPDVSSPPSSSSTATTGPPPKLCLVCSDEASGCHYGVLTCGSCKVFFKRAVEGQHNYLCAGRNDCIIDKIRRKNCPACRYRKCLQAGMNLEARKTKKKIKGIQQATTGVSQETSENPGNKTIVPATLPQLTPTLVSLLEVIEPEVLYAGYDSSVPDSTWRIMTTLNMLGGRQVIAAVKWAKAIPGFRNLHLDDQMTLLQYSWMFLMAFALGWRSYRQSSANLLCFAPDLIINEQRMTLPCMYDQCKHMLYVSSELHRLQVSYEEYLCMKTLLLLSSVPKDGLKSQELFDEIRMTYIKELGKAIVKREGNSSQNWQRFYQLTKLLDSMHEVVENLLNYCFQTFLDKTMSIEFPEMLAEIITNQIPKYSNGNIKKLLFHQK
The experiment in a line: FP-based competitive ligand binding assay. Also noted: GR was produced as a full length protein in insect cells and partially purified using ion exchange chromatography; made in house; host or cells: insect cells (baculovirus). The settings on record: for Ki: GR 4 nM, fluorescein-dexamethasone probe, 1-hour incubation at room temperature; for RBA: relative binding affinity, dexamethasone = 100. How it is done:
FIG. 3A and B are graphs showing FP-based competition assays with recombinant GR (A) and PR-LBD (B). Serial dilutions of test steroids were prepared. […] Final incubation conditions were similar to those described in FIG. 3. The final concentration of GR used was 4 nM, and for PR-LBD it was 8 nM. After a 1-hour incubation at room temperature, the fluorescence polarization of each well was read, using wells lacking fluor as blanks.
The other criteria used for validating a fluorescent steroid conjugate is the ability of known receptor ligands to compete with the fluor for binding to the receptor.

Assay [2] deals with T1, GR. The settings on record: literature RBA, dexamethasone = 100; cited from earlier work.

In the case of `CC(=O)OCC(=O)[C@@]12OC(C)(C)O[C@@H]1C[C@H]1[C@@H]3C[C@H](F)C4=CC(=O)C=C[C@]4(C)[C@@]3(F)[C@@H](O)C[C@@]12C` [Fluocinonide], in assay [1], the Ki came to 4.4 nM and the RBA is 17.
In assay [1], `CC1(C)O[C@@H]2C[C@H]3[C@@H]4C[C@H](F)C5=CC(=O)C=C[C@]5(C)[C@H]4[C@@H](O)C[C@]3(C)[C@]2(C(=O)CO)O1` [Flunisolide] gave an inhibitory constant (Ki) of 1 nM and an RBA of 73. In addition, the “Literature Value” in assay [2] was 100.
In assay [1], `CC1(C)O[C@@H]2C[C@H]3[C@@H]4CCC5=CC(=O)C=C[C@]5(C)[C@@]4(F)[C@@H](O)C[C@]3(C)[C@]2(C(=O)CO)O1` [Triamcinolone acetonide] showed a Ki of 0.9 nM.
In assay [1], `CC(=O)OCC(=O)[C@@]12OC3(CCCC3)O[C@@H]1C[C@H]1[C@@H]3CCC4=CC(=O)C=C[C@]4(C)[C@@]3(F)[C@@H](O)C[C@@]12C` [Amcinonide] had a Ki of 1.9 nM and an RBA of 40.
As for `C[C@]12CCC(=O)C=C1CC[C@@H]1[C@@H]2[C@@H](O)C[C@@]2(C)[C@H]1CC[C@]2(O)C(=O)CO` [Cortisol], the RBA in assay [1] came to 24. The “Literature Value” in assay [2] is 33.
